Earlier results on three substances are cited in patent US4337247A, “Tetrapeptidesemicarbazide derivatives and their production and use” (Takeda Chemical Industries, Ltd., priority 1979, dated 1982).

For this data set the following is noted: for morphinomimetic activity: direct intracerebral administration; for analgesic effect: intravenous route.

For the substance H-Tyr-Gly-Gly-Phe-Leu-OH, the morphinomimetic activity result was “show morphinomimetic activity” and the analgesic effect entry is given as “do not produce analgesic effects”.
Regarding “H-Tyr-Gly-Gly-Phe-Met-OH (H-YGGFM-OH) [enkephalin, pentapeptide isolated from the pig brain]”, the morphinomimetic activity result was “show morphinomimetic activity” and the analgesic effect result is listed as “do not produce analgesic effects”.
Regarding “β-endorphine (YGGFMTSEKSQTPLVTLFKNAIIKNAYKKGE; Beta-endorphin; UniProt P01189 237-267, looked up) [polypeptide consisting of 31 amino acids, considered to be derived from the carboxy-terminal of β-lipotrophine]”, the analgesic effect entry was “displays an overt analgesic action”.
